# From US20170081357A1, “[…] ACTIVE 17-NITROGEN SUBSTITUTED ESTRATREINTHIAZOLE DERIVATIVES AS INHIBITORS OF 17.BETA-HYDROXYSTEROID DEHYDROGENASE” (FORENDO PHARMA LTD, priority 2013, published 2017)
# Legend:
# [1] = target: T1, recombinant human 17β-HSD2 (Homo sapiens, UniProt P37059); assay: Inhibition of recombinant human 17β-HSD2 (conversion of 3H-estradiol to estrone, HPLC); type: biochemical; settings: inhibitor 1 μM; 50 nM estradiol, 1 mM NADH, 30 min at RT
# T1 construct: made in house; host or cells: Sd9 (Sf9) insect cells, baculovirus (Bac to Bac Expression System); fractionated cell extract
# T1 sequence (P37059 1-387): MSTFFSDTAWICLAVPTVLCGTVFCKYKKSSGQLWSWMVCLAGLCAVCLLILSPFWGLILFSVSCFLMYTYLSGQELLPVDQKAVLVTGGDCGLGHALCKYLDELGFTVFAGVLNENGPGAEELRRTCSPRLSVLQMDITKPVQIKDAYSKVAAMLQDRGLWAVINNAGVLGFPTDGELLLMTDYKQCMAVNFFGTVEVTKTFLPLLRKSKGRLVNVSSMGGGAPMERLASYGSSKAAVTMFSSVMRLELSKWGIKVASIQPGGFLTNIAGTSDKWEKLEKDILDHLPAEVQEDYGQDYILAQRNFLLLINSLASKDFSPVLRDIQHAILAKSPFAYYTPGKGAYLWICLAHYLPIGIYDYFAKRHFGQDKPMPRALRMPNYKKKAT
# Protocol: 17β-HSD2 production and isolation: Similarly to 17β-HSD1 the Recombinant baculovirus was generated by the “Bac to Bac Expression System” (Invitrogen). Recombinant bacmid was transfected to Sd9 insect cells using “Cellfectin Reagent” (Invitrogen). 60 h later cells were harvested and supernatant were fractionated by the following protocol: • cells were dissolved into 40 ml of A-buffer (40 mM TRIS, pH8.0, 20% glycerol, 20 μM NAD, 0.4 mM PMSF, 150 mM NaCl, 0.5% dodecyl-β-maltoside+protease inhibitor cocktail) • cells were sonicated • lysate was incubated on ice for 15 min • lysate was centrifuged 5000 rpm 15 min, +4° C. • centrifugation of the supernatant 180 000 g 30 min, +4° C. • pellet was dissolved into 8 ml of A-buffer • not resuspended material was removed by centrifugation 5000 rpm 15 min, +4° C. • the clear supernatant was divided into 100 μl aliquots and were stored frozen until determination of enzymatic activity.
# The amount of 17β-HSD2 was analysed by immunoblotting and total protein concentration of each extract batch was determined.
# Assay—Inhibition of recombinant human 17β-HSD2: Recombinant protein (4 μg/ml) was incubated in 20 mM KH2PO4 pH 8.5 with 50 nM estradiol (including 800 000 cpm/ml of ^3H-estradiol) and 1 mM NADH for 30 min at RT, in the presence of the potential inhibitor at concentrations 1 μM or 0.1 μM. Inhibitor stock solutions were prepared in DMSO. Final concentration of DMSO was adjusted to 1% in all samples. The enzyme reaction was stopped by addition of 10% trichloroacetic acid (final concentration). Samples were centrifuged in a microtiter plate at 4000 rpm for 10 min. Supernatants were applied to reverse phase HPLC on a Waters Symmetry C18 column, equipped with a Waters Sentry Guard column. Isocratic HPLC runs were performed at RT at a flow rate of 1 ml/min in acetonitrile:water 48:52 as running solvent. Radioactivity was monitored in the eluate by a Packard Flow Scintillation Analyzer. Total radioactivity for estrone and estradiol were determined in each sample and percent conversion of estradiol to estrone was calculated according to the following formula:
# (§1) Percent inhibition was calculated flowingly: % inhibition=100−% conversion
# [2] = Metabolic stability assay, human liver microsome and homogenate incubations; type: in vitro ADME; settings: human liver homogenate or microsomes, LC/PDA/TOF-MS
# Protocol: The in vitro metabolic stability of the compounds of the invention was determined for exemplified compounds using human liver microsome and homogenate incubations. The incubation time points used with or without appropriate cofactors were 0 min and 60 min. Samples were collected at both time points and substrates were detected using LC/PDA/TOF-MS. In vitro metabolic stability (% remaining after 60 min in human liver homogenate or microsomes) of the compounds were calculated and the results are summarized in Table 3.
# [3] = target: T2, recombinant human 17β-HSD1 (Homo sapiens, UniProt P14061); assay: Inhibition of recombinant human 17β-HSD1 (conversion of 3H-estrone to estradiol, HPLC); type: biochemical; settings: inhibitor 1 μM; 30 nM estrone, 1 mM NADPH, 30 min at RT; read-out: 17β-HDS1 Inhibition % at 1 μM
# T2 construct: made in house; host or cells: Sd9 (Sf9) insect cells, baculovirus (Bac to Bac Expression System); microsomal fraction
# T2 sequence (P14061 1-328): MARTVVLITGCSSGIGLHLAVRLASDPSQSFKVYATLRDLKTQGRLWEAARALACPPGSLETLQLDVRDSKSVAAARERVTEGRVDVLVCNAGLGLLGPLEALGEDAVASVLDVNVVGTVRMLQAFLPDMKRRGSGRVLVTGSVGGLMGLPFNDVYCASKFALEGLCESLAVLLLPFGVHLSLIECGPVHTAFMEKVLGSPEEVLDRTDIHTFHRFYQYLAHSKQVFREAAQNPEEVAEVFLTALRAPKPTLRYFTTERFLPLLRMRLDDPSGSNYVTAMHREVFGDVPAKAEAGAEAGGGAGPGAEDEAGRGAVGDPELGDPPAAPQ
# Protocol: 17β-HSD1 production and isolation: Recombinant baculovirus was generated by the “Bac to Bac Expression System” (Invitrogen). Recombinant bacmid was transfected to Sd9 insect cells using “Cellfectin Reagent” (Invitrogen). 60 h later cells were harvested; the microsomal fraction was isolated as described by Puranen, T. J., Poutanen, M. H., Peltoketo, H. E., Vihko, P. T. and Vihko, R. K. (1994) Site-directed mutagenesis of the putative active site of human 17 β-hydroxysteroid dehydrogenase type 1. Biochem. J. 304: 289-293. Aliquots were stored frozen until determination of enzymatic activity.
# Assay—Inhibition of recombinant human 17β-HSD1: Recombinant protein (1 μg/ml) was incubated in 20 mM KH2PO4 pH 7.4 with 30 nM estrone (including 800 000 cpm/ml of ^3H-estrone) and 1 mM NADPH for 30 min at RT, in the presence of the potential inhibitor at concentrations 1 μM or 0.1 μM. Inhibitor stock solutions were prepared in DMSO. Final concentration of DMSO was adjusted to 1% in all samples. The enzyme reaction was stopped by addition of 10% trichloroacetic acid (final concentration). Samples were centrifuged in a microtiter plate at 4000 rpm for 10 min. Supernatants were applied to reverse phase HPLC on a Waters Symmetry C18 column, equipped with a Waters Sentry Guard column. Isocratic HPLC runs were performed at RT at a flow rate of 1 ml/min in acetonitrile:water 48:52 as running solvent. Radioactivity was monitored in the eluate by a Packard Flow Scintillation Analyzer. Total radioactivity for estrone and estradiol were determined in each sample and percent conversion of estrone to estradiol was calculated according to the following formula:
# as §1
SMILES,inhibition at 1 µM [1],"In vitro metabolic stability, % remaining after 60 min [2]",inhibition at 1 µM [3]
"CO/N=C1\C[C@@H](CCC(=O)Nc2ncc(C)s2)C2C3CCc4cc(O)c(F)cc4C3CC[C@]12C (stereo partly drawn) [Compound 91, 3-{(13S,15R)-2-Fluoro-3-hydroxy-17-[(E)-methoxyimino]-13-methyl-7,8,9,11,12,13,14,15,16,17-decahydro-6H-cyclopenta[a]phenanthren-15-yl}-N-(5-methylthiazol-2-yl)propanamide]",5%,92%,94%
"Cc1cnc(NC(=O)CC[C@@H]2C/C(=N\O)[C@@]3(C)CCC4c5ccccc5CCC4C23)s1 (stereo partly drawn) [Compound 59, 3-{(13S,15R)-17-[(E)-hydroxyimino]-13-methyl-7,8,9,11,12,13,14,15,16,17-decahydro-6H-cyclopenta[a]phenanthren-15-yl}-N-(5-methylthiazol-2-yl)propanamide]",2%,100%,93%
"Cc1cnc(NC(=O)CC[C@@H]2c3c[nH]nc3[C@@]3(C)CCC4c5ccc(O)cc5CCC4C23)s1 (stereo partly drawn) [Compound 51, 3-((6aS,10S)-2-Hydroxy-6a-methyl-4b,5,6,6a,8,10,10a,10b,11,12-decehydro-7,8-diaza-pentaleno[2,1-1]phenanthren-10-yl}-N-(5-methylthiazol-2-yl)propanamide]",15%,46%,82%
"CO/N=C1\C[C@@H](CCC(=O)Nc2ncc(C)s2)C2C3CCc4c(ccc(O)c4F)C3CC[C@]12C (stereo partly drawn) [Compound 92, 3-{(13S,15R)-4-Fluoro-3-hydroxy-17-[(E)-methoxyimino]-13-methyl-7,8,9,11,12,13,14,15,16,17-decahydro-6H-cyclopenta[a]phenanthren-15-yl}-N-(5-methylthiazol-2-yl)propanamide]",7%,68%,90%
"COc1ccc2c(c1)CCC1C2CC[C@]2(C)c3n[nH]cc3[C@@H](CCC(=O)Nc3ncc(C)s3)C12 (stereo partly drawn) [Compound 50, 3-((6aS,10S)-2-Methoxy-6a-methyl-4b,5,6,6a,8,10,10a,10b,11,12-decehydro-7,8-diaza-pentaleno[2,1-1]phenanthren-10-yl}-N-(5-methylthiazol-2-yl)propanamide]",0%,88%,78%
"Cc1cnc(NC(=O)CC[C@@H]2c3c[nH]nc3[C@@]3(C)CCC4c5cc(C(C)(C)C)c(O)cc5CCC4C23)s1 (stereo partly drawn) [Compound 53, 3-((6aS,10S)-3-tert-Butyl-2-hydroxy-6a-methyl-4b,5,6,6a,8,10,10a,10b,11,12-decehydro-7,8-diaza-pentaleno[2,1-1]phenanthren-10-yl}-N-(5-methylthiazol-2-yl)propanamide]",13%,100%,76%
"Cc1cnc(NC(=O)CC[C@@H]2c3c[nH]nc3[C@@]3(C)CCC4c5cc([N+](=O)[O-])c(O)cc5CCC4C23)s1 (stereo partly drawn) [Compound 55, 3-((6aS,10S)-2-Hydroxy-6a-methyl-2-nitro-4b,5,6,6a,8,10,10a,10b,11,12-decehydro-7,8-diaza-pentaleno[2,1-1]phenanthren-10-yl}-N-(5-methylthiazol-2-yl)propanamide]",7%,86%,69%
"CO/N=C1\C[C@@H](CCC(=O)Nc2ncc(C)s2)C2C3CCc4cc(O)c(Br)cc4C3CC[C@]12C (stereo partly drawn) [Compound 85, 3-{(13S,15R)-2-Bromo-3-hydroxy-17-[(E)-methoxyimino]-13-methyl-7,8,9,11,12,13,14,15,16,17-decahydro-6H-cyclopenta[a]phenanthren-15-yl}-N-(5-methylthiazol-2-yl)-propanamide]",–,34%,–
"Cc1cnc(NC(=O)CC[C@@H]2C/C(=N\O)[C@@]3(C)CCC4c5ccc(O)c(Br)c5CCC4C23)s1 (stereo partly drawn) [Compound 63, 3-{(13S,15R)-4-Bromo-3-hydroxy-17-[(E)-hydroxyimino]-13-methyl-7,8,9,11,12,13,14,15,16,17-decahydro-6H-cyclopenta[a]phenanthren-15-yl}-N-(5-methylthiazol-2-yl)propanamide]",–,64%,–
"Cc1cnc(NC(=O)CC[C@@H]2C/C(=N\O)[C@@]3(C)CCC4c5cc(C(C)(C)C)c(O)cc5CCC4C23)s1 (stereo partly drawn) [Compound 58, 3-{(13S,15R)-2-tert-Butyl-3-hydroxy-17-[(E)-hydroxyimino]-13-methyl-7,8,9,11,12,13,14,15,16,17-decahydro-6H-cyclopenta[a]phenanthren-15-yl}-N-(5-methylthiazol-2-yl)propanamide]",–,100%,–
"Cc1cnc(NC(=O)CC[C@@H]2C/C(=N\O)[C@@]3(C)CCC4c5cc([N+](=O)[O-])c(O)cc5CCC4C23)s1 (stereo partly drawn) [Compound 60, 3-{(13S,15R)-3-Hydroxy-2-nitro-17-[(E)-hydroxyimino]-13-methyl-7,8,9,11,12,13,14,15,16,17-decahydro-6H-cyclopenta[a]phenanthren-15-yl}-N-(5-methylthiazol-2-yl)propanamide]",–,84%,–
"CO/N=C1\C[C@@H](CCC(=O)Nc2ncc(C)s2)C2C3CCc4cc(O)ccc4C3CC[C@]12C (stereo partly drawn) [Compound 73, 3-{(13S,15R)-3-Hydroxy-17-[(E)-methoxyimino]-13-methyl-7,8,9,11,12,13,14,15,16,17-decahydro-6H-cyclopenta[a]phenanthren-15-yl}-N-(5-methylthiazol-2-yl)propanamide]",–,73%,–
